Reference: publication PMC8231556, “Inhibiting Endothelial Cell Function in Normal and Tumor Angiogenesis Using BMP Type I Receptor Macrocyclic Kinase Inhibitors” (Cancers, 2021)

Tests used:
TGFBR2 = TGFBR2 (Homo sapiens, UniProt P37173); assay: radiometric protein kinase assay, affinity (Kd); type: binding
Procedure: The binding interaction profile of the compounds for ALK1–6, ACVR2A, ACVR2B, and TGFβR2 was determined by using radiometric protein kinase assay. For each compound, ten different concentrations (from 3 × 10^−6 M to 9 × 10^−11 M) were used in the protein kinase reaction.

HUVECs = assay: Chemotactic invasion assay; type: cell-based, human; settings: 0.5 µM, towards full medium with 20% FBS
Procedure: The invasion potential of ECs was investigated using the chemotactic invasion assay, according to the IncuCyte instruction manual. Briefly, the top layer of an IncuCyte ClearView 96-well chemotaxis plate (4582, Essen Bioscience) was coated with 1% gelatin for 30 min. One thousand five hundred HUVEC cells/well were seeded on the gelatin-coated top plate and covered with 60 µL M199 medium with 1% FBS containing 0.5 µM of the indicated compounds or vehicle control (DMSO). Then 200 µL/well of M199 supplemented with 20% FBS, 100 IU/mL penicillin/streptomycin, 0.01 IU/mL Heparine, and BPE with 0.5 µM of the indicated compounds was added to the bottom plate. The plate was placed in the IncuCyte, and whole well images of both top and bottom membranes were captured every 4 h for one day using the IncuCyte Chemotaxis imaging protocol. Finally, the top and bottom cell areas were quantified with the instrument’s software using automated algorithms. The ECs invasive behavior was presented as total bottom cell area normalized to the initial top cell area. All the experiments were repeated at least three times, and representative results are shown.

AURKB = molecular target: T1, AURKB (Homo sapiens, UniProt Q96GD4); assay: radiometric kinase profiling (33 PanQinase); type: biochemical; settings: read-out: Inhibitory effect (%) AURKB
T1 construct: purchased Proqinase, Germany
T1 sequence (Q96GD4 whole entry): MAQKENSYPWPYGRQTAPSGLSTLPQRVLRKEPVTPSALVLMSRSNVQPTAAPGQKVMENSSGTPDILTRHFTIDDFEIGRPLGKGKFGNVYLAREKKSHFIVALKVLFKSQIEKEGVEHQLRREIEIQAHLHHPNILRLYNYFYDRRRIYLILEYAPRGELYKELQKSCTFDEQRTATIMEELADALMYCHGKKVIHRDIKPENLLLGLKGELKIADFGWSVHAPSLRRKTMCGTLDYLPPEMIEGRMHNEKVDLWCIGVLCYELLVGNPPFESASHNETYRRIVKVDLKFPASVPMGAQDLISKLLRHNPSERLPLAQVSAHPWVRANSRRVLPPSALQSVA
Method in brief: (§1)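 Enzyme/substrate mixes were incubated with [γ-33P]-ATP and compound (added as a 0.1 μM solution in 10% DMSO) at 30 °C for 60 min, then stopped with H3PO4 and washed with NaCl. 33P incorporation was scintillation-counted, and residual activity (%) was normalized to untreated control and background.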

DNAPK = molecular target: T2, DNAPK (Homo sapiens, UniProt P78527); assay: radiometric kinase profiling (33 PanQinase); type: biochemical; settings: read-out: Inhibitory effect (%) DNAPK
T2 construct: purchased Proqinase, Germany
Method in brief: as §1

LCK = molecular target: T3, LCK (Homo sapiens, UniProt P06239); assay: radiometric kinase profiling (33 PanQinase); type: biochemical; settings: read-out: Inhibitory effect (%) LCK
T3 construct: purchased ProQinase (33PanQinase Activity Assay)
T3 sequence (P06239 whole entry): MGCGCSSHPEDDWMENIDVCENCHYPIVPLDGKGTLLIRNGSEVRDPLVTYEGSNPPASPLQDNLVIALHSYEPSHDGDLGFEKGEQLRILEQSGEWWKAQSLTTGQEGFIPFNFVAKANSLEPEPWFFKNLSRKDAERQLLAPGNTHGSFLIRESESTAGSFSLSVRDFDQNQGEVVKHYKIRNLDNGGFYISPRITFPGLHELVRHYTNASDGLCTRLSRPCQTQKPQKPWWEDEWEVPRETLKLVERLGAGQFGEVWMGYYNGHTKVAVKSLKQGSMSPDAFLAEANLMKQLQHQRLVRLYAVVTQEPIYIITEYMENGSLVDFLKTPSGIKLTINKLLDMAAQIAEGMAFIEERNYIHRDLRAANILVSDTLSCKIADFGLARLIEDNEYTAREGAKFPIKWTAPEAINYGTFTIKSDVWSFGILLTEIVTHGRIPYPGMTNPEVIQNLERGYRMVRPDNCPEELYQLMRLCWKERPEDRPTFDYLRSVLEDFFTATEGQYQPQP
Method in brief: as §1

MAP3K5 = molecular target: T4, MAP3K5 (Homo sapiens, UniProt Q99683); assay: radiometric kinase profiling (33 PanQinase); type: biochemical; settings: read-out: Inhibitory effect (%) MAP3K5
T4 construct: purchased ProQinase (33PanQinase Activity Assay)
T4 sequence (Q99683 1-1374): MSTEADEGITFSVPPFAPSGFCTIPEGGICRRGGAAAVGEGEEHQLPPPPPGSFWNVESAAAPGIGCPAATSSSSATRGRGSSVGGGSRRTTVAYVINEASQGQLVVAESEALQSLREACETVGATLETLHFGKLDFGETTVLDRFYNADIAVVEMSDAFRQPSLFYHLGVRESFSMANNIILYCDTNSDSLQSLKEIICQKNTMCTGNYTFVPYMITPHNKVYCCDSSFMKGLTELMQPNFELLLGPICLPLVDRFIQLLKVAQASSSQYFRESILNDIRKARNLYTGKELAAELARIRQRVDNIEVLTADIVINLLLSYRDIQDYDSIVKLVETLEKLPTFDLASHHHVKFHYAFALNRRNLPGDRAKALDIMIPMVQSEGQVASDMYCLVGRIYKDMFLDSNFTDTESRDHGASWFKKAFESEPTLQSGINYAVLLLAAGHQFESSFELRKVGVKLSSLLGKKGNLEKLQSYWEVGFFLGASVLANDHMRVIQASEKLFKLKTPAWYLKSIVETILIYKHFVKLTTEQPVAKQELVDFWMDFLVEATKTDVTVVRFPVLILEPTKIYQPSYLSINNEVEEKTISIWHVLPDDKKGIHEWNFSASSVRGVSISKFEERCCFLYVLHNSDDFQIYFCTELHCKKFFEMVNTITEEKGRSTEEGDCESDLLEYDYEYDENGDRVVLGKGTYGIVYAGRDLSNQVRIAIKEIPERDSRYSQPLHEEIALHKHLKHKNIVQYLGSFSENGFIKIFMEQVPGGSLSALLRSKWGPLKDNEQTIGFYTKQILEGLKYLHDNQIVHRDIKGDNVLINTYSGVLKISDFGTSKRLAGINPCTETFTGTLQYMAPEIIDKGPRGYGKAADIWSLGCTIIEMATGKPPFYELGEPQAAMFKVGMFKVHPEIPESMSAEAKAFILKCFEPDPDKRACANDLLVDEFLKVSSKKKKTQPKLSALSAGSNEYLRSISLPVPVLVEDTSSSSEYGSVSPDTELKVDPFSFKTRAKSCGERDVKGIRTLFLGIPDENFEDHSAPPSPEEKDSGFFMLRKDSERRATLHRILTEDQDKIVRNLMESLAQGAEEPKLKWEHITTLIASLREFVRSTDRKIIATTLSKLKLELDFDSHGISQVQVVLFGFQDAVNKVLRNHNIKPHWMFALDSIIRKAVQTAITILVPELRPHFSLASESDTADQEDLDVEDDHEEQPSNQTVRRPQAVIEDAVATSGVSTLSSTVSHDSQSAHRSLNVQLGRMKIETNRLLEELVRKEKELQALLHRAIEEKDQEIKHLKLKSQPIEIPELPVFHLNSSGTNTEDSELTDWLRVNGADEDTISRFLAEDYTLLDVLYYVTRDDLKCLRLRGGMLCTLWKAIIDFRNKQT
Method in brief: as §1

PRKACA = molecular target: T5, PRKACA (Homo sapiens, UniProt P17612); assay: radiometric kinase profiling (33 PanQinase); type: biochemical; settings: read-out: Inhibitory effect (%) PRKACA
T5 construct: purchased ProQinase (33PanQinase Activity Assay)
Method in brief: as §1

RPS6KA1 = molecular target: T6, RPS6KA1 (Homo sapiens, UniProt Q15418); assay: radiometric kinase profiling (33 PanQinase); type: biochemical; settings: read-out: Inhibitory effect (%) RPS6KA1
T6 construct: purchased ProQinase (33PanQinase Activity Assay)
T6 sequence (Q15418 whole entry): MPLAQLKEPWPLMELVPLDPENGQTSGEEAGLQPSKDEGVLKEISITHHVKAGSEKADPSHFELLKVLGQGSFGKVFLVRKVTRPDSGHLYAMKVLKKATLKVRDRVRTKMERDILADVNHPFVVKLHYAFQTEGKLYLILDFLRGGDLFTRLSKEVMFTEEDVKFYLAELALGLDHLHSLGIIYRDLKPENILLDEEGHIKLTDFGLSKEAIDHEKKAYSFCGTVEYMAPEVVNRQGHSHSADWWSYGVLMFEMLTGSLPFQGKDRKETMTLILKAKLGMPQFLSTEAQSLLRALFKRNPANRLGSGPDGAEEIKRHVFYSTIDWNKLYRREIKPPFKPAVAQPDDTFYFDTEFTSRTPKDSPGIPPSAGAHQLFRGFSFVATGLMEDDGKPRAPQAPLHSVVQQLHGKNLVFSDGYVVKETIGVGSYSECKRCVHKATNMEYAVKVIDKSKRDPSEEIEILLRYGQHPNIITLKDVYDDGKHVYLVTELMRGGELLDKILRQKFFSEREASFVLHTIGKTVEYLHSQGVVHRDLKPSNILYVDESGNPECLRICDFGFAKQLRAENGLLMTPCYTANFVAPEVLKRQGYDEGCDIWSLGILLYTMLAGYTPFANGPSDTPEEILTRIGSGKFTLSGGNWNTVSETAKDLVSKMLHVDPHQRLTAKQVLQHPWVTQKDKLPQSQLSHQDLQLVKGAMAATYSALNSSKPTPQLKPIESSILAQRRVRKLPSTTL
Method in brief: as §1

SLK = molecular target: T7, SLK (Homo sapiens, UniProt Q9H2G2); assay: radiometric kinase profiling (33 PanQinase); type: biochemical; settings: read-out: Inhibitory effect (%) SLK
T7 construct: purchased ProQinase (33PanQinase Activity Assay)
T7 sequence (Q9H2G2 whole entry): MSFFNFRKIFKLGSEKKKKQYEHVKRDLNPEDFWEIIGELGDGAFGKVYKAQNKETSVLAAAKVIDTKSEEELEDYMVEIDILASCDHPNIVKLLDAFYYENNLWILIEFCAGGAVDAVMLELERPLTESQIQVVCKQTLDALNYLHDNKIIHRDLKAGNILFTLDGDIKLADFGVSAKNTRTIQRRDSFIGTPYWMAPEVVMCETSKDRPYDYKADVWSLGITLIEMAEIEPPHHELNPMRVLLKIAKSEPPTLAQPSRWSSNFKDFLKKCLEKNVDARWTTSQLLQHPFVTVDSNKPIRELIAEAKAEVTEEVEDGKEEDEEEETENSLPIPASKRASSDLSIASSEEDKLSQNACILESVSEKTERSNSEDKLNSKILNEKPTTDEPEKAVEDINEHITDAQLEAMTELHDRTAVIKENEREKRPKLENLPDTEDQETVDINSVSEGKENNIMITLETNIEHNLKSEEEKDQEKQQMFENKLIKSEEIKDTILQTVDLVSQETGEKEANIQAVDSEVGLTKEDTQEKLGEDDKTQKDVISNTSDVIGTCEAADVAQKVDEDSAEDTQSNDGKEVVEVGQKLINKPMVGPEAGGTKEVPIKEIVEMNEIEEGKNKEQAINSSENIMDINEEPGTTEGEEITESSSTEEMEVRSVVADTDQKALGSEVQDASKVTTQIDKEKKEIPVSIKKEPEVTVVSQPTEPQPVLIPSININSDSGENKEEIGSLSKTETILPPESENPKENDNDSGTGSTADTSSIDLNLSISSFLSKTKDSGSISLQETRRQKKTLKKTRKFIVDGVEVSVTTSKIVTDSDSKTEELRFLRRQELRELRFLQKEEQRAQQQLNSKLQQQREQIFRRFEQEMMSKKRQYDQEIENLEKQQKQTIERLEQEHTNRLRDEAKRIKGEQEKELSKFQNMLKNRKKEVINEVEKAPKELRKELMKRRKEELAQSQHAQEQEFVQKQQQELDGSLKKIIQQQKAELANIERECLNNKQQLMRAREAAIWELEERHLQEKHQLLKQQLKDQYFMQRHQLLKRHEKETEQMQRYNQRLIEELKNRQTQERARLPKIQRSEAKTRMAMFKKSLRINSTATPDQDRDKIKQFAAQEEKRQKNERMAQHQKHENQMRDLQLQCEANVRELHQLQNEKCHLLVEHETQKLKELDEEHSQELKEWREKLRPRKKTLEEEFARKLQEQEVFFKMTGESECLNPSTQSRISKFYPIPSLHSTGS
Method in brief: as §1

Sequence of TGFBR2 (P37173 23-567): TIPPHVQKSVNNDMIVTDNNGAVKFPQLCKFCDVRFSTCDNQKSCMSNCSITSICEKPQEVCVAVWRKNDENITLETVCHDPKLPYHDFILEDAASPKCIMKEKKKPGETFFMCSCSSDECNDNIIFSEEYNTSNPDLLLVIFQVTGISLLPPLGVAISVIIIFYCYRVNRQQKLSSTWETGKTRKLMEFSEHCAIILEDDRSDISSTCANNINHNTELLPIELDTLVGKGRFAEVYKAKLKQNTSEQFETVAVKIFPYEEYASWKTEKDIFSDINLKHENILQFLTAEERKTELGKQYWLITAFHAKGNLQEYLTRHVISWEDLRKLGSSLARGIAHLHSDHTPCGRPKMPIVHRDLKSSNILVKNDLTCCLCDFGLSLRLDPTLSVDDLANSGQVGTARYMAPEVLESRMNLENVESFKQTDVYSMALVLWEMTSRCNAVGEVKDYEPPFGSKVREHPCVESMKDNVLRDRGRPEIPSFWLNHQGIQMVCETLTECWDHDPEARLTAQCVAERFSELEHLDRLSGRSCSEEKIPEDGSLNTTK

SMILES | Kd (TGFBR2) [nM] | effect on HUVEC chemotactic invasion (HUVECs) | inhibition at 0.1 µM (AURKB) [%] | inhibition at 0.1 µM (DNAPK) [%] | inhibition at 0.1 µM (LCK) [%] | inhibition at 0.1 µM (MAP3K5) [%] | inhibition at 0.1 µM (PRKACA) [%] | inhibition at 0.1 µM (RPS6KA1) [%] | inhibition at 0.1 µM (SLK) [%]
c1ccc2c(-c3cnn4cc(-c5ccc(N6CCNCC6)cc5)cnc34)ccnc2c1 [LDN-193189, reference compound] | 16 | significantly compromised | 3.93 | -29.6 | 25.4 | 6.9 | -14.1 | -10.4 | -18.4
CNC(=O)c1ccccc1Sc1ccc2c(/C=C/c3ccccn3)n[nH]c2c1 [Axitinib, reference compound] |  | significantly compromised |  |  |  |  |  |  | 
CN1CCc2cccc(c2)Nc2nccc(n2)N2CCCc3cc(ccc32)C1 [OD16] | 380 | similarly blocked | 4.48 | -8.88 | 6.7 | -11.3 | -19.5 | 17 | 26.5
CN1CCC(=O)NCCNc2ccn3ncc(c3n2)-c2cccc(c2)C1 [OD29] | 76 | similarly blocked | -11.2 | 12.9 | 35.6 | 0.68 | 9.09 | 5.09 | 27.7
